According to article PMC10102062, “Effects of DPTQ, a novel positive allosteric modulator of the dopamine D1 receptor, on spontaneous eye blink rate and spatial working memory in the nonhuman primate” (Psychopharmacology, 2023):

How the values were obtained:
[1] = test system: rhesus monkeys; assay: Spontaneous eye blink rate, cumulative dosing; format: in vivo, rhesus monkey
Excerpt: Eleven 5–6-year-old, male rhesus monkeys (Chengdu Ping, An Animal Breeding and Research Base, Sichuan Province, China) with an average weight of 4.83 kg were included in the study. The animals were randomly divided into three groups, DPTQ higher cumulative dose group (n = 4); DPTQ lower cumulative dose group (n = 3); and vehicle (20% Captisol (CyDex Pharmaceuticals, Inc., KS) in NaPO4 buffer) group (n = 4). The D1 agonist SKF82958 was included as a positive control; the results for this compound (not shown here) were recently published together with data for a different D1PAM (DETQ, see Bruns et al. [2018]). The D1 selective antagonist SCH39166 hydrobromide (Cat No.: 2299, Batch No.: 3A/129719) was purchased from Tocris, MN, and was prepared in Millipore pure water with the injection volume 0.2 ml/kg. The D1 antagonist was dosed 15 min before vehicle or DPTQ (n = 4 animals per group).
Spontaneous eye blinking rate was measured during observational experiments conducted in a specially constructed monkey chair (Mason et al. [2019]). A U-shaped neck plate that helped to fixate the orientation of the head was used to facilitate observation of eye blink rate response. A compact video camera (Panasonic/wv-cp480/CH) on a tripod was positioned in front of the seated monkey. Two camera images were combined by video collector (Color QUAD system) and transferred to the EthoVision software (Noldus, Leesburg, VA) on the computer for on-line viewing and recording.
Two weeks before testing, monkeys were trained daily to sit in the monkey chair for two 2-h periods with food reward. During post-training test sessions conducted between 9:00 am and 4:30 pm every day, each monkey was studied for nine consecutive 15-min components. Each 15-min block consisted of a 10-min habituation period followed by a 5-min period during which eye blinking was counted. […] Observers blind to the treatment conditions later scored each 5-min videotaped session. An eye blink was defined as a visible, rapid opening and closing of the eyelid. Two observers independently confirmed the measurement with reliability > 90%.
The effects of different D1 ligands on spontaneous eye blink rate were studied by a cumulative dosing procedure (Jutikiewicz and Bergman 2004). Active compound or vehicle (Captisol 20% w/v NaPO4 buffer) was administered after obtaining two baseline eye blink recordings. The ligand was given in random order to different monkeys of each group as described above. To study dose response and time course, incremental doses of DPTQ were administrated at the end of 15-min components of each test session.
DPTQ (free base, see Hao et al. [2019]) was supplied by Eli Lilly Company. Captisol (Lot No.: NC-04A-05034) was prepared as follows: Captisol 20% w/v NaPO4 buffer 25 mM, pH 8. The injection volume for DPTQ was 0.5 ml/kg IM. DPTQ at 0.1 mg/kg, 0.5 mg/kg, and 1 mg/kg were dosed as clear solution, while the 5 mg/kg and 10 mg/kg doses were formulated as fine suspensions. The above vehicle solution was stored at 4℃ in a refrigerator and restored to room temperature before use. When preparing DPTQ fresh daily, a portion of the vehicle (20% Captisol) was added to the compound and stirred to wet, followed by addition of the remainder of the vehicle and mixing until the solution became homogeneous. The suspension was then sonicated on an ice bath for 40 min to reduce particle size. Animals were dosed while in the chair.
Results for each monkey were expressed as the rate of eye blinking (blinks per minute) averaged over each 5-min testing epoch. The effects of vehicle and D1 PAM on eye blinking were averaged for each group of monkeys and expressed as mean ± SE. The effects of DPTQ and vehicle were analyzed with two-way ANOVA (D1 PAM and time) followed by Bonferroni post hoc test (GraphPad Prism, San Diego CA).

[2] = Plasma ligand exposure after IM injection (LC/MS) and projected brain concentrations; format: in vivo, macaque monkeys
Protocol: Plasma samples were collected in EDTA tubes at 0, 0.25, 0.50, 1, 2, 4, 8, 12, and 24 h after a bolus IM injection and stored at − 70C until further analysis by LC/MS (for further details see Hao et al. [2019]). For the lower dose of 0.1 mg/kg, IM, plasma samples were collected from three of the animals participating in the spatial working memory task at Yale University, at approximately 1.5 h after dosing (~ 30 min after completion of behavioral test session). Animals were acclimated to sitting freely in a customized chair and having one leg held for hair trimming (if necessary), wiping with 70% alcohol, and saphenous venopuncture using a BD Vacutainer tube inside a safety holder. For the 5 mg/kg, IM dose, plasma samples were collected in a separate study in three male adult macaque monkeys at Eli Lilly and Company, Indianapolis, IN. The collection and storage of samples followed the procedure described above, and analysis of D1 ligand levels was carried out at Eli Lilly and Company, Indianapolis, IN, USA, using liquid chromatography and tandem mass spectrometry.

[3] = target: D2 receptor (Homo sapiens, UniProt P14416); assay: Broad screening binding study with 3[H]-raclopride; conditions: 3[H]-raclopride as ligand; unpublished findings
D2 receptor, sequence (P14416 whole entry): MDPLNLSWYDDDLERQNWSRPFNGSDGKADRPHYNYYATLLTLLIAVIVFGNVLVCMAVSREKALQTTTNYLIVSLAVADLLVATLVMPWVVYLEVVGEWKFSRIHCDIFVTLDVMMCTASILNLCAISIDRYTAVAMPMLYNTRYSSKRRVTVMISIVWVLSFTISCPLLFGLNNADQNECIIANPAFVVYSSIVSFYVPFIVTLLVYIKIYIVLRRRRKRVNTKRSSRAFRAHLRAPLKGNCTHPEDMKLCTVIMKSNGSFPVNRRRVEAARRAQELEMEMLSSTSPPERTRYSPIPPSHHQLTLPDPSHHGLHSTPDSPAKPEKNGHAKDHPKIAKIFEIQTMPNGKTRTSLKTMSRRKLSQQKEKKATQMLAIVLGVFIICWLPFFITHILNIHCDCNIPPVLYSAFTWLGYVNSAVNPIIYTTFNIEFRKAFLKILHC

[4] = Brain penetration, unbound brain/plasma ratio and unbound ligand fraction; conditions: J. Cramer, unpublished data

C[C@H]1c2cccc(CC(C)(C)O)c2C[C@H](CO)N1C(=O)Cc1c(Cl)cccc1Cl [DPTQ]
Increase in eye blink rate after SCH39166 pretreatment ([1]; DPTQ 0.5, 5, 10 mg/kg cumulative, SCH39166 0.03 mg/kg IM 15 min before): small, non-significant | Oral movement ([1]; both high and lower cumulative doses, clear effect only at higher dose at 30 min): some degree of oral movement such as tongue protrusion | Spontaneous eye blink rate vs vehicle ([1]; higher cumulative dose 0.5, 5 and 10 mg/kg IM, at 30, 45, 60 and 75 min): significant increases | Spontaneous eye blink rate vs vehicle ([1]; lower cumulative dose 0.1, 1 and 5 mg/kg IM, only at 45 and 60 min): small but significant | Estimated unbound ligand concentrations in the brain ([2]; 0.1 mg/kg IM, 1.5 h after dosing): 1 to 2 nM | Projected unbound brain concentration as multiple of cAMP EC50 ([2]; 5 mg/kg IM, 2 h post dosing, hD1 and monkey D1 cAMP assay): eightfold down to onefold | Plasma levels at 0.1 mg/kg IM relative to 5 mg/kg IM (times lower) ([2]; 0.1 vs 5 mg/kg IM): about 50 × | Plasma concentrations at late time points ([2]; after 12 or 24 h): negligible | Ki [3]: > 5.6 µM | Unbound brain vs unbound plasma concentration ratio [4]: about 0.3 | Unbound ligand fraction [4]: 0.068
